Source: patent US8987502B2, “Oleanolic acid amidate derivatives, preparation methods and uses thereof” (Hangzhou Bensheng Pharmaceutical Co., Ltd., priority 2011, dated 2015)
Values after ≈ are worked out from the molar mass of the structure shown.

Columns and labels:
Becap37 = test: MTT solid tumor cell proliferation inhibition, Becap37; format: cell-based; conditions: Homo sapiens
Method: (§1) Human solid tumor cell lines: Hep-2 (laryngeal carcinoma), A549 (human lung cancer), CaES-17 (esophageal cancer cell), PC-3 (prostate cancer), CNE (nasopharyngeal carcinoma cell), and SK-OV-3 (ovarian cancer cell), all of which are purchased from China Center For Type Culture Collection; RKO (human colon adenocarcinoma cell), MGC 803 (human gastric cancer cell), MG63 (osteosarcoma) and U87 MG (malignant glioma cell), all of which are purchased from Fuxiang Bio-tech Co. Ltd., Shanghai, China; PANC-1 (pancreatic cancer), Hep G2 (human liver cancer cell), Becap37 (human breast cancer cell), and Hela (human cervical cancer cell), all of which are donated by Cancer Research Institute of Zhejiang University, China.
(§2) Obtaining 4000 well-growing human solid tumor cells and inoculating them into wells of a 96-well cell culture plate. The culture medium is DMEM High Glucose cell culture medium containing 10% fetal bovine serum. The plate is placed in a carbon dioxide cell incubator (5% CO2) at 37° C. for 24 hours for incubation. After being added with the amidated oleanolic acid derivatives of different concentrations and mixed uniformly, the plate is placed in a carbon dioxide cell incubator (5% CO2) at 37° C. for 72 hours for incubation. Then the relative number of the living cells is determined by the MTT method. In this experiment, the cell proliferation inhibition rate in control group (not treated with any compound) is set as 0%.

Jurkat = test: MTT leukemia cell proliferation inhibition, Jurkat; format: cell-based; conditions: Homo sapiens, 72 h
Excerpt: (§3) Leukemia cell lines: leukemia cell lines: K562/adr (drug-resistant, chronic myeloid leukemia, CML), NB4 (acute promyelocytic leukemia, AML), Kasumi-1 (acute myeloid leukemia M2 type, AML-M2), Jurkat (acute lymphoblastic leukemia, ALL), all of which are donated by Cancer Research Institute of Zhejiang University, China; and H9 (acute lymphoblastic leukemia, ALL), which is purchased from China Center for Type Culture Collection (CCTCC).
(§4) Reagents: The standard sample of oleanolic acid (OA) is purchased from Hua Kang Pharmaceutical Raw Material Factory, Shifang City, Sichuan, China; and the amidated oleanolic acid derivatives are prepared according to the present invention.
(§5) Obtaining 6000 well-growing leukemia cells and inoculating them into wells of a 96-well cell culture plate. The culture medium is the 1640 cell culture medium containing 10% fetal bovine serum. After adding the amidated oleanolic acid derivatives of different concentrations and mixing uniformly, placing the plate in a carbon dioxide cell incubator (5% CO2) at 37° C. and incubated for 72 hours. Then the relative number of viable cells is determined by the MTT method. In this experiment, the cell proliferation inhibition rate in control group (not treated with any compound) is set as 0%.

RPMI8226 = test: MTT multiple myeloma cell proliferation inhibition, RPMI8226; format: cell-based; conditions: Homo sapiens, RPMI-8226
Method: Multiple myeloma cell lines: RPMI8226 (multiple myeloma), purchased from Fuxiang Bio-tech Co. Ltd., Shanghai, China.
as §5

MGC803 = test: MTT solid tumor cell proliferation inhibition, MGC803; format: cell-based, human; conditions: Homo sapiens, MGC-803
Method: as §1, §2

PC-3 = test: MTT solid tumor cell proliferation inhibition, PC-3; format: cell-based, human; conditions: Homo sapiens
Method: as §1, §2

Hep G2 = test: MTT solid tumor cell proliferation inhibition, Hep G2; format: cell-based; conditions: Homo sapiens, HepG2
Method: as §1, §2

H9 = test: MTT leukemia cell proliferation inhibition, H9; format: cell-based, human; conditions: Homo sapiens
Excerpt: as §3, §4, §5

Hela = test: MTT solid tumor cell proliferation inhibition, Hela; format: cell-based, human; conditions: Homo sapiens, Hela, 72 h
Method: as §1, §2

CaES-17 = test: MTT solid tumor cell proliferation inhibition, CaES-17; format: cell-based, human; conditions: Homo sapiens, CaEs17
Method: as §1, §2

SK-OV-3 = test: MTT solid tumor cell proliferation inhibition, SK-OV-3; format: cell-based, human; conditions: Homo sapiens
Method: as §1, §2

U87 MG = test: MTT solid tumor cell proliferation inhibition, U87 MG; format: cell-based, human; conditions: Homo sapiens, U-87 MG, U87 MG, 72 h
Method: as §1, §2

Kasumi-1 = test: MTT leukemia cell proliferation inhibition, Kasumi-1; format: cell-based; conditions: Homo sapiens
Excerpt: as §3, §4, §5

A549 = test: MTT solid tumor cell proliferation inhibition, A549; format: cell-based, human; conditions: Homo sapiens
Method: as §1, §2

Hep-2 = test: MTT solid tumor cell proliferation inhibition, Hep-2; format: cell-based, human; conditions: Homo sapiens
Method: as §1, §2

RKO = test: MTT solid tumor cell proliferation inhibition, RKO; format: cell-based; conditions: Homo sapiens, 72 h
Method: as §1, §2

PANC-1 = test: MTT solid tumor cell proliferation inhibition, PANC-1; format: cell-based, human; conditions: Homo sapiens
Method: as §1, §2

MG 63 = test: MTT solid tumor cell proliferation inhibition, MG 63; format: cell-based, human
Method: as §1, §2

NB4 = test: MTT leukemia cell proliferation inhibition, NB4; format: cell-based; conditions: Homo sapiens, NB-4
Excerpt: as §3, §4, §5

K562/adr = test: MTT leukemia cell proliferation inhibition, K562/adr; format: cell-based; conditions: Homo sapiens, 72 h
Excerpt: as §3, §4, §5

CNE = test: MTT solid tumor cell proliferation inhibition, CNE; format: cell-based, human; conditions: Homo sapiens, CNE, 72 h
Method: as §1, §2

[1] = 16 μg/mL compound, read-out: IR (inhibition rate)

## CC1(C)CC[C@]2(NC(=O)c3ccccc3)CC[C@]3(C)C(=CC[C@@H]4[C@@]5(C)CC[C@H](O)C(C)(C)[C@@H]5CC[C@]43C)[C@@H]2C1 [BS-OA-101]
Becap37; Becap37, 16 μg/mL compound, 72 h, read-out: IR (inhibition rate)
  inhibition at 16 µg/mL: 18.1%
Becap37; Becap37, 72 h, MTT
  IC50: > 16 µg/mL
Jurkat; [1]
  inhibition at 16 µg/mL: 30%
Jurkat; MTT
  IC50: > 16 µg/mL
RPMI8226; RPMI8226, 16 μg/mL compound, 72 h, read-out: IR (inhibition rate)
  inhibition at 16 µg/mL: 97.5%
RPMI8226; RPMI8226, 72 h, MTT
  IC50: 6.49 µg/mL (≈ 12.2 µM)
MGC803; MGC803, 16 μg/mL compound, 72 h, read-out: IR (inhibition rate)
  inhibition at 16 µg/mL: 33.2%
MGC803; MGC803, 72 h, MTT
  IC50: > 16 µg/mL
PC-3; PC-3, 16 μg/mL compound, 72 h, read-out: IR (inhibition rate)
  inhibition at 16 µg/mL: 45.7%
PC-3; PC-3, 72 h, MTT
  IC50: 19.9 µg/mL (≈ 37.4 µM)
Hep G2; Hep G2, 16 μg/mL compound, 72 h, read-out: IR (inhibition rate)
  inhibition at 16 µg/mL: 16.1%
Hep G2; Hep G2, 72 h, MTT
  IC50: > 16 µg/mL
H9; H9, 16 μg/mL compound, 72 h, read-out: IR (inhibition rate)
  inhibition at 16 µg/mL: 58.7%
H9; H9, 72 h, MTT
  IC50: 14 µg/mL (≈ 26.3 µM)
Hela; [1]
  inhibition at 16 µg/mL: 57%
Hela; MTT
  IC50: 15.8 µg/mL (≈ 29.8 µM)
CaES-17; CaES-17, 16 μg/mL compound, 72 h, read-out: IR (inhibition rate)
  inhibition at 16 µg/mL: 25.8%
CaES-17; CaES-17, 72 h, MTT
  IC50: > 16 µg/mL
SK-OV-3; SK-OV-3, 16 μg/mL compound, 72 h, read-out: IR (inhibition rate)
  inhibition at 16 µg/mL: 39.7%
SK-OV-3; SK-OV-3, 72 h, MTT
  IC50: > 16 µg/mL
U87 MG; [1]
  inhibition at 16 µg/mL: 36.4%
U87 MG; MTT
  IC50: > 16 µg/mL
Kasumi-1; Kasumi-1, 16 μg/mL compound, 72 h, read-out: IR (inhibition rate)
  inhibition at 16 µg/mL: 53.8%
Kasumi-1; Kasumi-1, 72 h, MTT
  IC50: 15.4 µg/mL (≈ 29 µM)
A549; A549, 16 μg/mL compound, 72 h, read-out: IR (inhibition rate)
  inhibition at 16 µg/mL: 37.6%
A549; A549, 72 h, MTT
  IC50: > 16 µg/mL
Hep-2; Hep-2, 16 μg/mL compound, 72 h, read-out: IR (inhibition rate)
  inhibition at 16 µg/mL: 7.5%
Hep-2; Hep-2, 72 h, MTT
  IC50: > 16 µg/mL
RKO; [1]
  inhibition at 16 µg/mL: 22.5%
RKO; MTT
  IC50: > 16 µg/mL
PANC-1; PANC-1, 16 μg/mL compound, 72 h, read-out: IR (inhibition rate)
  inhibition at 16 µg/mL: 20.6%
PANC-1; PANC-1, 72 h, MTT
  IC50: > 16 µg/mL
MG 63; Homo sapiens, MG 63, 72 h, MTT
  IC50: > 16 µg/mL
MG 63; MG 63, 16 μg/mL compound, 72 h
  IR (inhibition rate): 17.3%
NB4; NB4, 16 μg/mL compound, 72 h, read-out: IR (inhibition rate)
  inhibition at 16 µg/mL: 96.1%
NB4; NB4, 72 h, MTT
  IC50: 8.2 µg/mL (≈ 15.4 µM)
K562/adr; [1]
  inhibition at 16 µg/mL: 88.7%
K562/adr; MTT
  IC50: 6.29 µg/mL (≈ 11.8 µM)
CNE; [1]
  inhibition at 16 µg/mL: 36.2%
CNE; MTT
  IC50: > 16 µg/mL
